The target in this assay is CREB-binding protein (Homo sapiens, UniProt Q92793). Put plainly: Inhibition of CREBBP (unknown origin) by TR-FRET assay.

2 molecules from ChEMBL document CHEMBL5335862, “The Science and Art of Structure-Based Virtual Screening” (ACS Med Chem Lett, 2024) can be followed below.

Structures are written as SMILES.

CREB-binding protein, sequence (Q92793 whole entry): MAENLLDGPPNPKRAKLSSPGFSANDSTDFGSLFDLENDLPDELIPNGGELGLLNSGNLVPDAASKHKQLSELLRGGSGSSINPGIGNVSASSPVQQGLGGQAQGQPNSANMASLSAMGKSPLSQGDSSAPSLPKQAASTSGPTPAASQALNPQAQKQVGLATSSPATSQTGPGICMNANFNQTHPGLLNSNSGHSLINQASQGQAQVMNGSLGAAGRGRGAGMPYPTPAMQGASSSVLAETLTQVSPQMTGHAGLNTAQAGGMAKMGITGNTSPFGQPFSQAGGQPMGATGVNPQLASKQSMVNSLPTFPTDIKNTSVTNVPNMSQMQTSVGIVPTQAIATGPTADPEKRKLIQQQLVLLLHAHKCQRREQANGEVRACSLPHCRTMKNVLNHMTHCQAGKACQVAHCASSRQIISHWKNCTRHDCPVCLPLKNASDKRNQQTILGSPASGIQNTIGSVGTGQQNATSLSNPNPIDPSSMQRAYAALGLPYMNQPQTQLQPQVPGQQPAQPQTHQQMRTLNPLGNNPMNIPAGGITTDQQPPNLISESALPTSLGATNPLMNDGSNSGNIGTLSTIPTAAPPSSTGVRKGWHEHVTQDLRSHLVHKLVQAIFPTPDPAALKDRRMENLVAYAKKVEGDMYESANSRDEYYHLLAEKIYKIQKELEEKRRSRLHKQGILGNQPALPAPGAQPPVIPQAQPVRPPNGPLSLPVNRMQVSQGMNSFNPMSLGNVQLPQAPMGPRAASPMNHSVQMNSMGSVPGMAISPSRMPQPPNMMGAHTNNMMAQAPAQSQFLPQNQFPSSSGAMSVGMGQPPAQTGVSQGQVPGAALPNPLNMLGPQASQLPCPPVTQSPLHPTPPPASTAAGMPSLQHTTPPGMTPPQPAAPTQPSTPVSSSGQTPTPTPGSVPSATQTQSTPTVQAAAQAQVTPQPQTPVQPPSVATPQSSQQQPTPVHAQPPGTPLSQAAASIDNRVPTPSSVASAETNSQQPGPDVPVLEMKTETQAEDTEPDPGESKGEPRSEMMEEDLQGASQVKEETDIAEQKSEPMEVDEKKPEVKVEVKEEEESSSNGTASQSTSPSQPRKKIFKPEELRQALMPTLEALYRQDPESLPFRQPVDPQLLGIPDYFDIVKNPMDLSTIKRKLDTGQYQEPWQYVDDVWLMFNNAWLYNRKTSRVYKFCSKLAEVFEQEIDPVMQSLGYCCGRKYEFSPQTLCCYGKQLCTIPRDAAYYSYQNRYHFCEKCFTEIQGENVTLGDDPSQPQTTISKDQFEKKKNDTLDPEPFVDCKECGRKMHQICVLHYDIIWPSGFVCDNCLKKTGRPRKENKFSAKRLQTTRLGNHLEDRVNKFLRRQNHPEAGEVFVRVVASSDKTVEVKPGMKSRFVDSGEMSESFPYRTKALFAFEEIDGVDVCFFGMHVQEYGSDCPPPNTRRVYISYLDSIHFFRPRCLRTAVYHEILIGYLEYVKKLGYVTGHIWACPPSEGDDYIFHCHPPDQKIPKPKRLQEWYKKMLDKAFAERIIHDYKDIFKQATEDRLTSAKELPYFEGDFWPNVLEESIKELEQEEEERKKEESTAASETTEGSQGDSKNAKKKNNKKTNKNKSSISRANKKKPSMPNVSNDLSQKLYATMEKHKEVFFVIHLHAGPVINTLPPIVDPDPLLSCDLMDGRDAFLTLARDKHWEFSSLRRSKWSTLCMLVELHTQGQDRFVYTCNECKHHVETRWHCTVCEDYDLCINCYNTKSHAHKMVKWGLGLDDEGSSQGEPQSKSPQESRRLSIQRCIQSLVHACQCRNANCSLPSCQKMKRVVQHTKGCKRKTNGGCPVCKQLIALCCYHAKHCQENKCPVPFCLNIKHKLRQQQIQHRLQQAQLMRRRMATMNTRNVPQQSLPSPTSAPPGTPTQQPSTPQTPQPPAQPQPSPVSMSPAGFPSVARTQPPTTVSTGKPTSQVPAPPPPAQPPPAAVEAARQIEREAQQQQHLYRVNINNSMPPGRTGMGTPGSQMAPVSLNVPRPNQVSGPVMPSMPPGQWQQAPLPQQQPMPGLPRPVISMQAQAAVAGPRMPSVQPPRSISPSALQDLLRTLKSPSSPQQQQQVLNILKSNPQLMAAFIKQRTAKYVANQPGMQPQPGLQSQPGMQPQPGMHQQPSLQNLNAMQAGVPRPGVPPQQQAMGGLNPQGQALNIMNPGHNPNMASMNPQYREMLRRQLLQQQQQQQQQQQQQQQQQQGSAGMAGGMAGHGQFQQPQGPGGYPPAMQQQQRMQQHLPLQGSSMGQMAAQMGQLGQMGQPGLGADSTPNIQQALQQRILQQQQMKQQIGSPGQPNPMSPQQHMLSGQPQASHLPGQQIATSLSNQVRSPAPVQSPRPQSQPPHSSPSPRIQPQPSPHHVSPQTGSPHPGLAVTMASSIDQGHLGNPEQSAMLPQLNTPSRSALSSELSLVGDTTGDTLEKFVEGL

The term IC50 denotes the point on the concentration scale where inhibition reaches its midpoint. Lower therefore signals greater potency. Turning to `Cc1cc2c(C(N)=O)c(N)n(-c3c(C)ccc(O)c3C)c2nc1C` [LUNRESERTIB], the IC50 was 300 nM.
As for `Cc1ccc(O)cc1-n1c(N)c(C(N)=O)c2nc3ccccc3nc21`, the figure is 300 nM.
